Data taken from PubChem BioAssay (NCI).
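The compound was tested at five concentrations on cells cultured in 96-well plates, with a 48-hour exposure period. TGI: total growth inhibition.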

How the values were obtained:
Assay in all cases: growth of human tumour cells (NCI), 48 h
786-0 renal = system: 786-0 renal
A549 NSCLC = system: A549 NSCLC
ACHN renal = system: ACHN renal
BT-549 breast = system: BT-549 breast
CAKI-1 renal = system: CAKI-1 renal
COLO 205 colon = system: COLO 205 colon
DU-145 prostate = system: DU-145 prostate
EKVX NSCLC = system: EKVX NSCLC
HCC-2998 colon = system: HCC-2998 colon
HCT-15 colon = system: HCT-15 colon
HOP-62 NSCLC = system: HOP-62 NSCLC
HOP-92 NSCLC = system: HOP-92 NSCLC
HS 578T breast = system: HS 578T breast
HT29 colon = system: HT29 colon
IGROV1 ovarian = system: IGROV1 ovarian
K-562 leukemia = system: K-562 leukemia
KM12 colon = system: KM12 colon
M14 melanoma = system: M14 melanoma
MALME-3M melanoma = system: MALME-3M melanoma
MCF7 breast = system: MCF7 breast
MDA-MB-231 breast = system: MDA-MB-231 breast
MDA-MB-435 = system: MDA-MB-435
MDA-N = system: MDA-N
MOLT-4 leukemia = system: MOLT-4 leukemia
NCI-H226 lung = system: NCI-H226 lung
NCI-H23 lung = system: NCI-H23 lung
NCI-H460 lung = system: NCI-H460 lung
NCI-H522 lung = system: NCI-H522 lung
NCI/ADR-RES ovarian = system: NCI/ADR-RES ovarian
OVCAR-3 ovarian = system: OVCAR-3 ovarian
OVCAR-5 ovarian = system: OVCAR-5 ovarian
OVCAR-8 ovarian = system: OVCAR-8 ovarian
PC-3 prostate = system: PC-3 prostate
RPMI-8226 leukemia = system: RPMI-8226 leukemia
RXF 393 renal = system: RXF 393 renal
SF-268 CNS = system: SF-268 CNS
SF-295 CNS = system: SF-295 CNS
SF-539 CNS = system: SF-539 CNS
SK-MEL-2 melanoma = system: SK-MEL-2 melanoma
SK-MEL-28 melanoma = system: SK-MEL-28 melanoma
SK-MEL-5 melanoma = system: SK-MEL-5 melanoma
SK-OV-3 ovarian = system: SK-OV-3 ovarian
SN12C renal = system: SN12C renal
SNB-19 CNS = system: SNB-19 CNS
SNB-75 CNS = system: SNB-75 CNS
SR leukemia = system: SR leukemia
SW-620 colon = system: SW-620 colon
T-47D breast = system: T-47D breast
TK-10 renal = system: TK-10 renal
U251 CNS = system: U251 CNS
UACC-62 melanoma = system: UACC-62 melanoma
UO-31 renal = system: UO-31 renal
A498 renal = system: A498 renal
HCT-116 colon = system: HCT-116 colon
LOX IMVI melanoma = system: LOX IMVI melanoma
UACC-257 melanoma = system: UACC-257 melanoma

Measured: TGI

CC(=O)OC(C(=O)NNC(=O)OC(C)(C)C)c1ccccc1 (stereo unspecified)
> 100 µM: 786-0 renal | A549 NSCLC | ACHN renal | BT-549 breast | CAKI-1 renal | COLO 205 colon | DU-145 prostate | EKVX NSCLC | HCC-2998 colon | HCT-15 colon | HOP-62 NSCLC | HOP-92 NSCLC | HS 578T breast | HT29 colon | IGROV1 ovarian | K-562 leukemia | KM12 colon | M14 melanoma | MALME-3M melanoma | MCF7 breast | MDA-MB-231 breast | MDA-MB-435 | MDA-N | MOLT-4 leukemia | NCI-H226 lung | NCI-H23 lung | NCI-H460 lung | NCI-H522 lung | NCI/ADR-RES ovarian | OVCAR-3 ovarian | OVCAR-5 ovarian | OVCAR-8 ovarian | PC-3 prostate | RPMI-8226 leukemia | RXF 393 renal | SF-268 CNS | SF-295 CNS | SF-539 CNS | SK-MEL-2 melanoma | SK-MEL-28 melanoma | SK-MEL-5 melanoma | SK-OV-3 ovarian | SN12C renal | SNB-19 CNS | SNB-75 CNS | SR leukemia | SW-620 colon | T-47D breast | TK-10 renal | U251 CNS | UACC-62 melanoma | UO-31 renal

CC(=O)OCC1OC(Sc2nc(-c3ccccc3)c(C#N)c(=O)n2C2OC(COC(C)=O)C(OC(C)=O)C(OC(C)=O)C2OC(C)=O)C(OC(C)=O)C(OC(C)=O)C1OC(C)=O (stereo unspecified)
> 100 µM: 786-0 renal | A498 renal | A549 NSCLC | ACHN renal | BT-549 breast | CAKI-1 renal | COLO 205 colon | DU-145 prostate | EKVX NSCLC | HCC-2998 colon | HCT-116 colon | HCT-15 colon | HOP-62 NSCLC | HOP-92 NSCLC | HS 578T breast | HT29 colon | IGROV1 ovarian | K-562 leukemia | KM12 colon | LOX IMVI melanoma | M14 melanoma | MCF7 breast | MDA-MB-231 breast | MDA-MB-435 | MDA-N | MOLT-4 leukemia | NCI-H226 lung | NCI-H23 lung | NCI-H460 lung | NCI-H522 lung | NCI/ADR-RES ovarian | OVCAR-3 ovarian | OVCAR-5 ovarian | OVCAR-8 ovarian | PC-3 prostate | RPMI-8226 leukemia | RXF 393 renal | SF-268 CNS | SF-295 CNS | SF-539 CNS | SK-MEL-2 melanoma | SK-MEL-28 melanoma | SK-MEL-5 melanoma | SK-OV-3 ovarian | SN12C renal | SNB-75 CNS | SR leukemia | SW-620 colon | T-47D breast | TK-10 renal | U251 CNS | UACC-257 melanoma | UACC-62 melanoma | UO-31 renal
